Source: paper PMC9381536, “Non-apoptotic cell death induction via sapogenin based supramolecular particles” (Scientific Reports, 2022)

Columns and labels:
EEA1 = EEA1 immunofluorescence; assay type: cell-based, Human; details: HCC1937, AG-08 16 h
Description: Figure 2 AG-08 is related with endosomal pathway. (A) After pre-treatment with 20 µM pitstop II, 0.5 mM methyl-β-cyclodextrin (MβC), 80 µM dynasore, 20 µM cytochalasin d (Cyto D) or 20 µM chlorpromazine (CPZ) for 1 h, HCC1937 cells were treated with 8 µM AG-08 for 24 h. Then cell viability was determined by using WST-1. Reported values were normalized on cells treated with only AG-08. Error bars are the standard deviations (n = 3). p-values were calculated with respect to AG-08 treated cells by two-tailed equal variance Student’s t-test (*p < 0.05, ***p < 0.001, ****p < 0.0001) (B) HCC1937 cells were treated with brefeldin A (Bref A) for 1 h and then treated with 8 µM AG-08 for 24 h. Error bars represent standard deviations (n = 3). p-values were calculated with respect to AG-08-treated cells (*p < 0.05, **p < 0.005, ***p < 0.001). (C) Following AG-08 treatment for 16 h, EEA1 proteins were stained using the anti-EEA1 antibody in HCC1937 cells (scale bar = 25 µm).
Cells were grown on glass coverslips and treated with AG-08. At the end of treatments, cells were washed twice with ice-cold PBS and fixed with 4% paraformaldehyde in PBS for 30 min at 4 °C. After washing 6 times with PBS, cells were permeabilized and blocked with 0.01% saponin and 0,01% BSA in PBS. […] Mounted samples were analyzed by fluorescence microscopy (Olympus IX70, Japan).

A549 = system: A549; set-up: method as in PMID 33136369; details: cited from earlier work
HCC1937 cells = test: Cell viability with Tween 20 blocking particle formation; assay type: cell-based, Human; details: HCC1937, 24 h
Description: Figure 1 AG-08 mediated cytotoxicity relies on the supramolecular structures. (A) Structure of AG-08. (B) The scanning transmission electron micrograph of 16 µM AG-08 in PBS. Figure is a representative image of stained sample with uranyl acetate (5683 × magnification; scale bar 600 nm). (C) After 3 h incubation of Nile red solution with AG-08 or AG, fluorescence intensity of Nile red was measured. (D) AG-08, Staurosporine (Sta) or vehicle samples prepared in the cell condition medium was filtrated by 220 nm filter and HCC1937 cells were exposed to the filtrates. After 24 h, the viability of cells was measured and represented as a percentage of that of the vehicle control. The error bars represent mean value ± s.d. (n = 3). *p < 0.05, **p < 0.005, ***p < 0.001. […] Cell viability was detected after 24 h incubation. […]
To verify that the activity of AG-08 arises from its supramolecular structures, freshly prepared AG-08 solutions were filtered using 220 nm-filters to remove AG-08 supramolecular particles from medium, and the filtrates were analyzed for their cytotoxicity. […]
Figure 5 The cytotoxic activity of analogs depends on particle formation like AG-08. […] The level of released LDH was calculated as fold change relative to vehicle. […] After 24 h, cell viability was measured. […] Cell viability after 24 h was measured. […]

[1] = Nile red staining (particle formation); assay type: physicochemical; details: Nile red, PBS, 3 h
Description: AG-08 and AG were dissolved in DMSO as a 1000-fold concentrated stock added into the filtered PBS, which contain 2.5 µM Nile red. After 3 h incubation at room temperature, the fluorescence intensity was measured with a microplate reader (550 nm for excitation and 635 nm for the emission wavelength) (Varioscan, Thermo Fisher Scientific, US).

MCF7 = test: Cytotoxicity analysis (WST-1); assay type: cell-based; details: Homo sapiens, MCF7, 48 h
Description: (§1) HCC1937 (Human breast cancer line), HeLa (Human […]), A549 (Human lung adenocarcinoma), MRC-5 (Human lung fibroblasts), MCF7 (Human breast cancer cells), A549 (human lung carcinoma) were obtained from American Type Culture Collection and maintained as exponentially growing monolayers by culturing according to the supplier’s instructions. MCF7, HeLa, MRC-5, and A549 cell lines were cultured and routinely passaged in DMEM media containing 10% FBS, while HCC1937 cell lines were propagated in RPMI 1640 containing 10% FBS.
(§2) Following the treatment with compounds or vehicle for 48 h, the 10% WST-1 (Roche, Switzerland) in medium was replaced in each 96 well. After 4 h incubation with WST-1 reagent at 37 °C and 5% CO2, the absorbance was measured using a microplate reader at 440 nm (Varioscan, Thermo Fisher Scientific, US). Graph Pad Prism 5 (San Diego, CA, US.) was used to calculate the IC50, which represents the concentration of compounds that is required for 50% inhibition in comparison to the vehicle-treated controls. The experiments were repeated three times independently.

HeLa = test: Cytotoxicity analysis (WST-1); assay type: cell-based; details: Homo sapiens, 48 h
Description: as §1, §2

MRC-5 = test: Cytotoxicity analysis (WST-1); assay type: cell-based; details: Homo sapiens, MRC5, MRC-5 normal cell line, 48 h
Description: as §1, §2

SMILES: Cc1ccc(S(=O)(=O)OC2CCC3(C)C4=CCC5(C)C(C6(C)CCC(C(C)(C)O)O6)C(O)CC5(C)C4C=CC3C2(C)C)cc1 (stereo not shown) [AG-08]
- EEA1 positive vesicles (EEA1): dramatic decrease
- IC50 (A549): 2.3 µM
- cell death in presence of Tween 20 (1:40,000) (HCC1937 cells): inhibited
- critical assembly concentration [1]: approximately 2 µM
- IC50 (MCF7): 3.78 µM
- IC50 (HeLa): 5.7 µM
- IC50 (MRC-5): 2.58 µM
